# Results taken from US20030152562A1, “Vitro micro-organs, and uses related thereto” (Yissum Research Development Company of the Hebrew …, priority 2001, published 2003).
# “Also recorded” adds a separate entry of the source.
# Experiments:
# Type in all cases: cell-based
# guinea-pig skin cultures = test: BrdU labeling assay of cell proliferation (DNA synthesis) in skin micro-organ cultures; details: FIG. 12
# Protocol: Fresh skin was obtained after surgery, cleaned from underlying fat tissue and cut into 0.4×5 cm flaps, which are then transversely sectioned, using a tissue chopper or other suitable cutting means into 300 μm sections under sterile conditions so that the final tissue segments had dimensions of 4 mm in width and 0.3 mm in thickness (see FIG. 1). These micrograns were placed in a 24-well microplate in 400 μl of DMEM in the absence of serum under 5% CO2 at 37° C., under constant shaking at 12 rpm for periods of one to eight days. Twenty micro-explants were grown per well.
# Micro-organ cultures were prepared according to Example I and proliferation of the cells was measured by analyzing the amount of DNA synthesis as follows. […]
# The cultures were prepared and maintained in defined medium in similar growth conditions as described in Example I. Control samples were analyzed by immunocytochemistry to determine that the micro-organ culture was maintained in a manner that was similar to that occurring in vivo.
# Duplicated samples of skin micro-cultures were treated with TGF-β at 2.5 ng/ml. A quantitative analysis of the number of BrdU labeled cells/explant was performed according to Example II.
# epidermal cells = test: Inhibition of proliferation of epidermal cells
# New born mouse skin = test: Hair shaft growth in new born mouse skin micro-organ cultures; details: skin from 30 hr-old mouse, 3 days in culture, 1 ng/ml EGF
# Protocol: New born mouse skin was obtained after surgery, cleaned of underlying fat tissue and cut into 0.4×5 cm flaps, which were then transversely sectioned, using a tissue chopper or other suitable cutting devise into 300 μm sections. The micro-organs were placed in microplates in DMEM in the absence of serum under 5% CO2 at 37° C. under constant shaking for periods of 1 to 14 days. Certain of the micro-organ explants were contacted with a growth factor, e.g., FGF, which was added to the culture media. The medium was changed every 2 days.
# New born “hairless” skin can be induced to produce hair shafts when grown in MC cultures.
substance,measurement,setting,value
TGF-β,effect on cell proliferation / mitogenesis in skin micro-organ cultures,"guinea-pig skin cultures; 2.5 ng/ml, guinea-pig skin cultures",inhibitor of cell proliferation; also recorded: inhibition of mitogenesis
same,inhibition of DNA synthesis (number of BrdU labeled cells/explant) compared with controls,"guinea-pig skin cultures; TGF-β at 2.5 ng/ml, skin micro-cultures in defined medium",Greater than 90%
Activin,effect on proliferation of epidermal cells,epidermal cells,inhibit proliferation of epidermal cells
"EGF: epidermal growth factor added to culture medium (NSDSECPLSHDGYCLHDGVCMYIEALDKYACNCVVGYIGERCQYRDLKWWELR; UniProt P01133 971-1023, looked up)",hair shaft development in explants,New born mouse skin,development of hair shafts in the explants
